Converted amounts (≈) assume the structure as drawn.
Legend:
Format in all cases: functional
[1] = test system: Staphylococcus aureus; test: Antimicrobial activity against Staphylococcus aureus ATCC 25923 incubated for 18 hrs by CLSI-based microbroth dilution method; conditions: ATCC 25923, 18 h
[2] = test system: Pseudomonas aeruginosa; test: Antimicrobial activity against Pseudomonas aeruginosa ATCC 19429 incubated for 18 hrs by CLSI-based microbroth dilution method; conditions: ATCC 19429, 18 h
[3] = test system: Escherichia coli; test: Antimicrobial activity against Escherichia coli ATCC 25922 incubated for 24 hrs; conditions: ATCC 25922, 24 h
[4] = test system: Staphylococcus aureus; test: Antimicrobial activity against Staphylococcus aureus ATCC 29213 incubated for 24 hrs; conditions: ATCC 29213, 24 h
[5] = test system: Pseudomonas aeruginosa; test: Antimicrobial activity against Pseudomonas aeruginosa ATCC 27853 incubated for 24 hrs; conditions: ATCC 27853, 24 h
[6] = test system: Streptococcus pneumoniae; test: Antibacterial activity against Streptococcus pneumoniae ATCC 49619 incubated for 24 hrs; conditions: ATCC 49619, 24 h
[7] = test system: Staphylococcus aureus; test: Antimicrobial activity against methicillin-susceptible Staphylococcus aureus ATCC 29213 incubated for 18 to 24 hrs by two-fold serial dilution method
[8] = test system: Mycobacterium tuberculosis; test: Antimicrobial activity against Mycobacterium tuberculosis H37Rv ATCC 27294 incubated for 7 days by microplate Alamar blue assay; conditions: H37Rv ATCC 27294, 168 h
[9] = test system: Staphylococcus aureus; test: Antimicrobial activity against methicillin-resistant Staphylococcus aureus ATCC 33591 incubated for 18 to 24 hrs by two-fold serial dilution method
[10] = test system: Staphylococcus epidermidis; test: Antimicrobial activity against methicillin-susceptible Staphylococcus epidermidis ATCC 12228 incubated for 18 to 24 hrs by two-fold serial dilution method
[11] = test system: Enterococcus faecium; test: Antimicrobial activity against Enterococcus faecium ATCC 700221 incubated for 18 to 24 hrs by two-fold serial dilution method

SMILES	MIC [1]	MIC [2]	MIC [3]	MIC [4]	MIC [5]	MIC [6]	MIC [7]	MIC [8]	MIC [9]	MIC [10]	MIC [11]
O=C(O)c1cn(C2CC2)c2cc(N3CCCCC3)c(F)cc2c1=O	0.25 µg/mL (≈ 0.757 µM)	32 µg/mL (≈ 96.9 µM)									
CCn1cc(C(=O)O)c(=O)c2cc(F)c(N3CCNCC3)cc21.Cl	2 µg/mL	1 µg/mL									
CCn1cc(C(=O)O)c(=O)c2cc(F)c(N3CCN(C/C(=N/OC)c4ccc([N+](=O)[O-])cc4)CC3)cc21			25 µg/mL (≈ 48.9 µM)	25 µg/mL (≈ 48.9 µM)	100 µg/mL (≈ 195 µM)	100 µg/mL (≈ 195 µM)					
COc1c(N2CCN(C/C(C)=N/NC(=O)c3ccc(Cl)cc3)CC2)c(F)cc2c(=O)c(C(=O)O)cn(C3CC3)c12							0.125 µg/mL (≈ 0.219 µM)	0.272 µM (≈ 0.155 µg/mL)	0.125 µg/mL (≈ 0.219 µM)	0.125 µg/mL (≈ 0.219 µM)	32 µg/mL (≈ 56.1 µM)
Cc1ccc(/C(CN2CCN(c3cc4c(cc3F)c(=O)c(C(=O)O)cn4C3CC3)CC2)=N\NC(N)=O)cc1			12.5 µg/mL (≈ 24 µM)	6.25 µg/mL (≈ 12 µM)	50 µg/mL (≈ 96 µM)	25 µg/mL (≈ 48 µM)					
COc1c(N2CCN(C/C(C)=N/NC(=O)c3ccc(F)cc3)CC2)c(F)cc2c(=O)c(C(=O)O)cn(C3CC3)c12							0.125 µg/mL (≈ 0.226 µM)	0.266 µM (≈ 0.147 µg/mL)	0.125 µg/mL (≈ 0.226 µM)	0.125 µg/mL (≈ 0.226 µM)	> 64 µg/mL
COc1c(N2CCN(C/C(C)=N/NC(=O)c3ccc(O)cc3)CC2)c(F)cc2c(=O)c(C(=O)O)cn(C3CC3)c12							0.125 µg/mL (≈ 0.227 µM)	0.21 µM (≈ 0.116 µg/mL)	0.06 µg/mL (≈ 0.109 µM)	0.06 µg/mL (≈ 0.109 µM)	64 µg/mL (≈ 116 µM)
COc1c(N2CCN(C/C(C)=N/Nc3ccc(C(F)(F)F)cc3)CC2)c(F)cc2c(=O)c(C(=O)O)cn(C3CC3)c12							0.125 µg/mL (≈ 0.217 µM)	0.394 µM (≈ 0.227 µg/mL)	0.125 µg/mL (≈ 0.217 µM)	0.25 µg/mL (≈ 0.434 µM)	64 µg/mL (≈ 111 µM)
CCn1cc(C(=O)O)c(=O)c2cc(F)c(N3CCN(C/C(=N/N)c4ccc([N+](=O)[O-])cc4)CC3)cc21			12.5 µg/mL (≈ 25.2 µM)	12.5 µg/mL (≈ 25.2 µM)	50 µg/mL (≈ 101 µM)	25 µg/mL (≈ 50.4 µM)					
COc1ccc(/C(CN2CCN(c3cc4c(cc3F)c(=O)c(C(=O)O)cn4C3CC3)CC2)=N\O)cc1			12.5 µg/mL (≈ 25.3 µM)	6.25 µg/mL (≈ 12.6 µM)	100 µg/mL (≈ 202 µM)	50 µg/mL (≈ 101 µM)					
COc1ccc(/C(CN2CCN(c3cc4c(cc3F)c(=O)c(C(=O)O)cn4C3CC3)CC2)=N/NC(N)=O)cc1			12.5 µg/mL (≈ 23.3 µM)	6.25 µg/mL (≈ 11.6 µM)	50 µg/mL (≈ 93.2 µM)	12.5 µg/mL (≈ 23.3 µM)					
CCn1cc(C(=O)O)c(=O)c2cc(F)c(N3CCN(C/C(=N/O)c4ccc(C)cc4)CC3)cc21			50 µg/mL (≈ 107 µM)	50 µg/mL (≈ 107 µM)	100 µg/mL (≈ 214 µM)	100 µg/mL (≈ 214 µM)					
CCn1cc(C(=O)O)c(=O)c2cc(F)c(N3CCN(C/C(=N/O)c4ccc([N+](=O)[O-])cc4)CC3)cc21			12.5 µg/mL (≈ 25.1 µM)	6.25 µg/mL (≈ 12.6 µM)	100 µg/mL (≈ 201 µM)	50 µg/mL (≈ 101 µM)					
CCn1cc(C(=O)O)c(=O)c2cc(F)c(N3CCN(C/C(=N\O)c4ccccc4)CC3)cc21			50 µg/mL (≈ 111 µM)	50 µg/mL (≈ 111 µM)	100 µg/mL (≈ 221 µM)	100 µg/mL (≈ 221 µM)					
CCn1cc(C(=O)O)c(=O)c2cc(F)c(N3CCN(C/C(=N\N)c4ccccc4)CC3)cc21			12.5 µg/mL (≈ 27.7 µM)	25 µg/mL (≈ 55.4 µM)	100 µg/mL (≈ 221 µM)	50 µg/mL (≈ 111 µM)					
COc1c(N2CCN(C/C(C)=N/NC(=O)c3ccccc3)CC2)c(F)cc2c(=O)c(C(=O)O)cn(C3CC3)c12							0.125 µg/mL (≈ 0.233 µM)	0.226 µM (≈ 0.121 µg/mL)	0.125 µg/mL (≈ 0.233 µM)	0.125 µg/mL (≈ 0.233 µM)	> 128 µg/mL
COc1c(N2CCN(C/C(C)=N/Nc3ccc(Cl)cc3)CC2)c(F)cc2c(=O)c(C(=O)O)cn(C3CC3)c12							0.06 µg/mL (≈ 0.111 µM)	0.433 µM (≈ 0.235 µg/mL)	0.06 µg/mL (≈ 0.111 µM)	0.125 µg/mL (≈ 0.231 µM)	64 µg/mL (≈ 118 µM)
CCn1cc(C(=O)O)c(=O)c2cc(F)c(N3CCN(C/C(=N\Nc4ccccc4)c4ccc([N+](=O)[O-])cc4)CC3)cc21			50 µg/mL (≈ 87.3 µM)	50 µg/mL (≈ 87.3 µM)	> 100 µg/mL	100 µg/mL (≈ 175 µM)					

SMILES	MIC [1]	MIC [2]	MIC [3]	MIC [4]	MIC [5]	MIC [6]	MIC [7]	MIC [8]	MIC [9]	MIC [10]	MIC [11]
CCn1cc(C(=O)O)c(=O)c2cc(F)c(N3CCN(C/C(=N/NC(N)=O)c4ccc([N+](=O)[O-])cc4)CC3)cc21			6.25 µg/mL (≈ 11.6 µM)	6.25 µg/mL (≈ 11.6 µM)	50 µg/mL (≈ 92.7 µM)	12.5 µg/mL (≈ 23.2 µM)					
COc1c(N2CCN(C/C(C)=N/Nc3nc4ccccc4s3)CC2)c(F)cc2c(=O)c(C(=O)O)cn(C3CC3)c12							0.25 µg/mL (≈ 0.443 µM)	0.313 µM (≈ 0.177 µg/mL)	0.5 µg/mL (≈ 0.886 µM)	0.5 µg/mL (≈ 0.886 µM)	64 µg/mL (≈ 113 µM)
CCn1cc(C(=O)O)c(=O)c2cc(F)c(N3CCN(C/C(=N/Nc4ccccc4)c4ccc(OC)cc4)CC3)cc21			25 µg/mL (≈ 44.8 µM)	25 µg/mL (≈ 44.8 µM)	100 µg/mL (≈ 179 µM)	100 µg/mL (≈ 179 µM)					
COc1cccc(N/N=C(\C)CN2CCN(c3c(F)cc4c(=O)c(C(=O)O)cn(C5CC5)c4c3OC)CC2)c1							0.125 µg/mL (≈ 0.233 µM)	0.434 µM (≈ 0.233 µg/mL)	0.125 µg/mL (≈ 0.233 µM)	0.25 µg/mL (≈ 0.465 µM)	> 64 µg/mL
COc1c(N2CCN(C/C(C)=N/Nc3ccccn3)CC2)c(F)cc2c(=O)c(C(=O)O)cn(C3CC3)c12							0.125 µg/mL (≈ 0.246 µM)	0.372 µM (≈ 0.189 µg/mL)	0.125 µg/mL (≈ 0.246 µM)	0.125 µg/mL (≈ 0.246 µM)	64 µg/mL (≈ 126 µM)
COc1c(N2CCN(C/C(C)=N/Nc3ccc(F)c(Cl)c3)CC2)c(F)cc2c(=O)c(C(=O)O)cn(C3CC3)c12							0.125 µg/mL (≈ 0.223 µM)	0.396 µM (≈ 0.222 µg/mL)	0.125 µg/mL (≈ 0.223 µM)	0.125 µg/mL (≈ 0.223 µM)	64 µg/mL (≈ 114 µM)
CCn1cc(C(=O)O)c(=O)c2cc(F)c(N3CCN(C/C(=N/OC)c4ccc(C)cc4)CC3)cc21			25 µg/mL (≈ 52 µM)	25 µg/mL (≈ 52 µM)	> 100 µg/mL	100 µg/mL (≈ 208 µM)					
COc1c(N2CCN(C/C(C)=N/Nc3ccnc4cc(Cl)ccc34)CC2)c(F)cc2c(=O)c(C(=O)O)cn(C3CC3)c12							0.5 µg/mL (≈ 0.843 µM)	0.266 µM (≈ 0.158 µg/mL)	0.5 µg/mL (≈ 0.843 µM)	1 µg/mL (≈ 1.69 µM)	> 128 µg/mL
COc1ccc(C(=O)N/N=C(\C)CN2CCN(c3c(F)cc4c(=O)c(C(=O)O)cn(C5CC5)c4c3OC)CC2)cc1							0.125 µg/mL (≈ 0.221 µM)	0.214 µM (≈ 0.121 µg/mL)	0.25 µg/mL (≈ 0.442 µM)	0.125 µg/mL (≈ 0.221 µM)	64 µg/mL (≈ 113 µM)
O=C(O)c1cn(C2CC2)c2cc(N3CCCC3)c(F)cc2c1=O	0.0625 µg/mL (≈ 0.198 µM)	> 128 µg/mL									
COc1c(N2CCN(C/C(C)=N/Nc3ccncc3)CC2)c(F)cc2c(=O)c(C(=O)O)cn(C3CC3)c12							2 µg/mL (≈ 3.93 µM)	1.78 µM (≈ 0.905 µg/mL)	2 µg/mL (≈ 3.93 µM)	2 µg/mL (≈ 3.93 µM)	> 64 µg/mL
O=C(O)c1cn(C2CC2)c2cc(N3CCOCC3)c(F)cc2c1=O	125 µg/mL (≈ 376 µM)	8 µg/mL (≈ 24.1 µM)									
COc1c(N2CCN(C/C(C)=N/NC(=O)c3ccc([N+](=O)[O-])cc3)CC2)c(F)cc2c(=O)c(C(=O)O)cn(C3CC3)c12							0.25 µg/mL (≈ 0.431 µM)	0.294 µM (≈ 0.171 µg/mL)	0.25 µg/mL (≈ 0.431 µM)	0.125 µg/mL (≈ 0.215 µM)	128 µg/mL (≈ 220 µM)
COc1c(N2CCN(CCn3ccnn3)CC2)c(F)cc2c(=O)c(C(=O)O)cn(C3CC3)c12							4 µg/mL (≈ 8.76 µM)	14.2 µM (≈ 6.48 µg/mL)	4 µg/mL (≈ 8.76 µM)	4 µg/mL (≈ 8.76 µM)	> 128 µg/mL
COc1c(N2CCN(CCCn3cc([N+](=O)[O-])nc3C)CC2)c(F)cc2c(=O)c(C(=O)O)cn(C3CC3)c12							32 µg/mL (≈ 60.5 µM)	60.3 µM (≈ 31.9 µg/mL)	32 µg/mL (≈ 60.5 µM)	32 µg/mL (≈ 60.5 µM)	> 64 µg/mL
COc1c(N2CCN(CCn3cncn3)CC2)c(F)cc2c(=O)c(C(=O)O)cn(C3CC3)c12							4 µg/mL (≈ 8.76 µM)	4.1 µM (≈ 1.87 µg/mL)	4 µg/mL (≈ 8.76 µM)	4 µg/mL (≈ 8.76 µM)	> 128 µg/mL
CN(C)c1cc2c(cc1F)c(=O)c(C(=O)O)cn2C1CC1	125 µg/mL (≈ 431 µM)	8 µg/mL (≈ 27.6 µM)									
COc1c(N2CCN(C/C(C)=N/Nc3ccccc3)CC2)c(F)cc2c(=O)c(C(=O)O)cn(C3CC3)c12							0.25 µg/mL (≈ 0.493 µM)	0.398 µM (≈ 0.202 µg/mL)	0.25 µg/mL (≈ 0.493 µM)	0.25 µg/mL (≈ 0.493 µM)	64 µg/mL (≈ 126 µM)

From ChEMBL document CHEMBL4602605, “Fluoroquinolones structural and medicinal developments (2013-2018): Where are we now?” (Bioorg Med Chem, 2019)
